Measurements from patent publication US20090131380A1, “Novel pharmaceutical composition for topical treatment of skin psoriasis and the treatment method thereof” (priority 2007, published 2009).

What was measured:
skin psoriasis = conditions: cited from earlier work; for clinical antipsoriatic efficacy: topical, 0.05% (w/w) in Locobase® unctuous creme, 50 μg/cm^2/24 h, 35 days; for effect on psoriatic rash (irritation / worsening): topically administered
[1] = test system: psoriatic plaques (skin psoriasis); test: Topical treatment trial of psoriatic plaques in one psoriasis patient (Tetrac, Control and Daivonex regimens); assay type: in vivo, human; conditions: twice a day
Protocol: A psoriasis patient having almost symmetrical psoriatic plaques on the lateral sides of both elbows (l.dx: 41 cm^2 and l.sin: 44 cm^2) and a psoriatic plaque (53 cm^2) on right calf was chosen for the trial.
a) An ointment (Locobase® unctuous creme, Astellas Pharma A/S Glostrup, Denmark) in which 500 μg/g 3,3′,5,5′-tetraiodothyroacetic acid (0.05%) of GMP-quality (Pharmatory Ltd., Oulu, Finland) was mixed was used as an ex tempore preparation for the concerned treatment purpose (hereinafter referred to as “Tetrac”).
b) A 50 μg/g calcipotriol (0.005%) containing creme (Daivonex®, LEO Pharma A/S, Ballerup, Denmark) was available as commercial pharmaceutical product (hereinafter referred to as “Daivonex®”).
c) A betamethasone 17-valerate-containing creme (Bemetson®, Orion oyj, Espoo, Finland) responding betamethasone 1 mg/g (0.1%) was available as a commercial product (hereinafter referred to as “Bemetson®”).
a) The psoriatic lesion of the left elbow of the patient was selected as the target of the topical treatment with Tetrac, the result of which is shown in left column of FIG. 1—“The Tetrac Regimen”. […]

plaque psoriasis = conditions: placebo-controlled double-blind study, carried out in 1997; cited from earlier work
psoriasis = conditions: topical Triac; WO96/40048; cited from earlier work

Compound | clinical antipsoriatic efficacy (skin psoriasis) | effect on psoriatic rash (irritation / worsening) (skin psoriasis) | also measured
N[C@H](Cc1cc(I)c(Oc2cc(I)c(O)c(I)c2)c(I)c1)C(=O)O [D-thyroxine] | ineffective | do not irritate or worsen psoriatic rash | 
N[C@@H](Cc1cc(I)c(Oc2cc(I)c(O)c(I)c2)c(I)c1)C(=O)O [L-thyroxine] |  | greatly worsen psoriatic rash | 
N[C@@H](Cc1cc(I)c(Oc2ccc(O)c(I)c2)c(I)c1)C(=O)O [L-triiodothyronine] |  | greatly worsen psoriatic rash | 
O=C(O)Cc1cc(I)c(Oc2cc(I)c(O)c(I)c2)c(I)c1 [Tetrac, 3,3′,5,5′-tetraiodothyroacetic acid] | strong clinical antipsoriatic efficacy |  | clinical antipsoriatic effect on psoriatic lesion ([1]; after five weeks, photographs FIG. 1 / FIG. 2): clear clinical antipsoriatic effect; clinical antipsoriatic effect / healing of psoriatic plaque at end of trial ([1]; six weeks, Bemetson® (betamethasone) concurrently added for the final sixth week): surprisingly more potent clinical antipsoriatic effect
O=C(O)CCc1cc(I)c(Oc2cc(I)c(O)c(I)c2)c(I)c1 [Tetraprop, 3,3′,5,5′-tetraiodothyropropionic acid] | strong clinical antipsoriatic efficacy |  | 
O=C(O)Cc1cc(I)c(Oc2ccc(O)c(I)c2)c(I)c1 [Triac, 3,3′5-triiodothyroacetic acid] | indeed ineffective | do not irritate or worsen psoriatic rash | efficacy in the topical treatment of plaque psoriasis (plaque psoriasis): ineffective; experiment persons in whom an antipsoriatic effect had emerged (psoriasis): 60%
